According to the supplement of paper PMC10307832:

What was measured:
Test in all cases: relative viability (nuclei count vs DMSO), 5 days (fraction); higher = more cells survive
[1] = tested on: NCI-H1666
How it was run: (§1)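 The day after seeding in 1536-well plates, lung cancer cell lines were treated by pin tool with a single drug, or with a fixed anchor-drug dose together with five library-drug doses (not always all listed) in √10 steps. After 5 days, a combined fix-and-stain solution (final 0.05% Triton X-100, 1% formaldehyde, 1 ug/ml Hoechst) was added. Nuclei counted on 4× images gave relative viability as treated counts over vehicle counts, reported as the median of duplicate plates.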

[2] = tested on: NCI-H2087
How it was run: as §1

[3] = tested on: NCI-H441
How it was run: as §1

[4] = tested on: NCI-H1355
How it was run: as §1

[5] = tested on: NCI-H2405
How it was run: as §1

[6] = tested on: PC-14
How it was run: as §1

[7] = tested on: NCI-H2023
How it was run: as §1

[8] = tested on: LK-2
How it was run: as §1

[9] = tested on: NCI-H2126
How it was run: as §1

[10] = tested on: HOP-62
How it was run: as §1

[11] = tested on: SW 1573
How it was run: as §1

[12] = tested on: NCI-H322M
How it was run: as §1

[13] = tested on: COR-L23
How it was run: as §1

[14] = tested on: ChaGo-K-1
How it was run: as §1

[15] = tested on: LCLC-103H
How it was run: as §1

[16] = tested on: NCI-H460
How it was run: as §1

[17] = tested on: NCI-H1975
How it was run: as §1

[18] = tested on: HCC-44
How it was run: as §1

[19] = tested on: EPLC-272H
How it was run: as §1

[20] = tested on: NCI-H2228
How it was run: as §1

[21] = tested on: NCI-H596
How it was run: as §1

[22] = tested on: NCI-H3122
How it was run: as §1

[23] = tested on: SW 900
How it was run: as §1

[24] = tested on: EMC-BAC-2
How it was run: as §1

[25] = tested on: NCI-H1944
How it was run: as §1

Nc1cccc2c1CN(C1CCC(=O)NC1=O)C2=O (stereo not given) [Lenalidomide] + O=C(c1cc(Cc2n[nH]c(=O)c3ccccc23)ccc1F)N1CCN(C(=O)C2CC2)CC1 [Olaparib] (partner 8 µM)
relative viability ([1]; first compound 0.253 µM): 0.781 | relative viability ([1]; first compound 0.8 µM): 0.717 | relative viability ([1]; first compound 2.53 µM): 0.776 | relative viability ([1]; first compound 8 µM): 0.759 | relative viability ([2]; first compound 0.253 µM): 0.562 | relative viability ([2]; first compound 2.53 µM): 0.689 | relative viability ([2]; first compound 8 µM): 0.685 | relative viability ([3]; first compound 0.253 µM): 0.471 | relative viability ([3]; first compound 0.8 µM): 0.502 | relative viability ([3]; first compound 2.53 µM): 0.625 | relative viability ([3]; first compound 8 µM): 0.577 | relative viability ([4]; first compound 0.253 µM): 0.756 | relative viability ([4]; first compound 0.8 µM): 0.5 | relative viability ([4]; first compound 2.53 µM): 0.857 | relative viability ([4]; first compound 8 µM): 0.709 | relative viability ([5]; first compound 0.253 µM): 0.866 | relative viability ([5]; first compound 0.8 µM): 0.877 | relative viability ([5]; first compound 2.53 µM): 0.879 | relative viability ([5]; first compound 8 µM): 0.86 | relative viability ([6]; first compound 0.253 µM): 0.302 | relative viability ([6]; first compound 0.8 µM): 0.243 | relative viability ([6]; first compound 2.53 µM): 0.374 | relative viability ([6]; first compound 8 µM): 0.436 | relative viability ([7]; first compound 0.253 µM): 0.46 | relative viability ([7]; first compound 0.8 µM): 0.469 | relative viability ([7]; first compound 2.53 µM): 0.492 | relative viability ([7]; first compound 8 µM): 0.453 | relative viability ([8]; first compound 0.253 µM): 0.881 | relative viability ([8]; first compound 0.8 µM): 0.413 | relative viability ([8]; first compound 2.53 µM): 0.571 | relative viability ([8]; first compound 8 µM): 0.387 | relative viability ([9]; first compound 0.253 µM): 0.934 | relative viability ([9]; first compound 0.8 µM): 0.857 | relative viability ([9]; first compound 2.53 µM): 0.983 | relative viability ([9]; first compound 8 µM): 0.854 | relative viability ([10]; first compound 0.253 µM): 0.38 | relative viability ([10]; first compound 0.8 µM): 0.366 | relative viability ([10]; first compound 2.53 µM): 0.537 | relative viability ([10]; first compound 8 µM): 0.406 | relative viability ([11]; first compound 0.253 µM): 0.492 | relative viability ([11]; first compound 0.8 µM): 0.545 | relative viability ([11]; first compound 2.53 µM): 0.468 | relative viability ([11]; first compound 8 µM): 0.606 | relative viability ([12]; first compound 0.253 µM): 0.831 | relative viability ([12]; first compound 0.8 µM): 0.736 | relative viability ([12]; first compound 2.53 µM): 0.886 | relative viability ([12]; first compound 8 µM): 0.945 | relative viability ([13]; first compound 0.253 µM): 0.329 | relative viability ([13]; first compound 0.8 µM): 0.316 | relative viability ([13]; first compound 2.53 µM): 0.356 | relative viability ([13]; first compound 8 µM): 0.393 | relative viability ([14]; first compound 0.253 µM): 0.387 | relative viability ([14]; first compound 0.8 µM): 0.407 | relative viability ([14]; first compound 2.53 µM): 0.421 | relative viability ([14]; first compound 8 µM): 0.478 | relative viability ([15]; first compound 0.253 µM): 0.718 | relative viability ([15]; first compound 0.8 µM): 0.667 | relative viability ([15]; first compound 2.53 µM): 0.76 | relative viability ([15]; first compound 8 µM): 0.741 | relative viability ([16]; first compound 0.253 µM): 0.394 | relative viability ([16]; first compound 0.8 µM): 0.397 | relative viability ([16]; first compound 2.53 µM): 0.438 | relative viability ([16]; first compound 8 µM): 0.374 | relative viability ([17]; first compound 0.253 µM): 0.912 | relative viability ([17]; first compound 0.8 µM): 0.694 | relative viability ([17]; first compound 2.53 µM): 0.876 | relative viability ([17]; first compound 8 µM): 0.995 | relative viability ([18]; first compound 0.253 µM): 0.981 | relative viability ([18]; first compound 0.8 µM): 0.873 | relative viability ([18]; first compound 2.53 µM): 1.02 | relative viability ([18]; first compound 8 µM): 1.05 | relative viability ([19]; first compound 0.253 µM): 0.777 | relative viability ([19]; first compound 2.53 µM): 0.613 | relative viability ([19]; first compound 8 µM): 0.657 | relative viability ([20]; first compound 0.253 µM): 0.544 | relative viability ([20]; first compound 0.8 µM): 0.502 | relative viability ([20]; first compound 2.53 µM): 0.753 | relative viability ([20]; first compound 8 µM): 0.583 | relative viability ([21]; first compound 0.253 µM): 0.758 | relative viability ([21]; first compound 0.8 µM): 0.705 | relative viability ([21]; first compound 2.53 µM): 0.77 | relative viability ([21]; first compound 8 µM): 0.77 | relative viability ([22]; first compound 0.253 µM): 0.596 | relative viability ([22]; first compound 0.8 µM): 0.579 | relative viability ([22]; first compound 2.53 µM): 0.623 | relative viability ([22]; first compound 8 µM): 0.745 | relative viability ([23]; first compound 2.53 µM): 0.913 | relative viability ([23]; first compound 8 µM): 0.858 | relative viability ([24]; first compound 0.253 µM): 0.479 | relative viability ([24]; first compound 0.8 µM): 0.395 | relative viability ([24]; first compound 2.53 µM): 0.52 | relative viability ([24]; first compound 8 µM): 0.461 | relative viability ([25]; first compound 0.253 µM): 0.43 | relative viability ([25]; first compound 2.53 µM): 0.443 | relative viability ([25]; first compound 8 µM): 0.415
